# Experimental data published in ChEMBL document CHEMBL1152560, “Substituted 2-arylbenzothiazoles as kinase inhibitors: hit-to-lead optimization” (Bioorg Med Chem, 2009).
# Key:
# [1] = target: 3-phosphoinositide-dependent protein kinase 1 (Homo sapiens) (UniProt O15530); assay: Residual activity of PDK1 at 10 uM by microplate scintillation counting
# [2] = target: CDK6/cyclin D1 (Homo sapiens) (UniProt P24385+Q00534); assay: Residual activity of CDK6/Cyclin D1 at 0.1 uM by microplate scintillation counting; type: protein-complex assay
# [3] = target: Mitogen-activated protein kinase 14 (Homo sapiens) (UniProt Q16539); assay: Residual activity of p38alpha at 1 uM by microplate scintillation counting
# [4] = target: Proto-oncogene tyrosine-protein kinase Src (Homo sapiens) (UniProt P12931); assay: Residual activity of SRC at 1 uM by microplate scintillation counting
# [5] = system: T1, Dual specificity mitogen-activated protein kinase kinase 6 (Homo sapiens), P52564 [S207D,T211D]; assay: Residual activity of MKK6 S207D/T211D mutant at 10 uM by microplate scintillation counting
# T1 sequence (whole entry): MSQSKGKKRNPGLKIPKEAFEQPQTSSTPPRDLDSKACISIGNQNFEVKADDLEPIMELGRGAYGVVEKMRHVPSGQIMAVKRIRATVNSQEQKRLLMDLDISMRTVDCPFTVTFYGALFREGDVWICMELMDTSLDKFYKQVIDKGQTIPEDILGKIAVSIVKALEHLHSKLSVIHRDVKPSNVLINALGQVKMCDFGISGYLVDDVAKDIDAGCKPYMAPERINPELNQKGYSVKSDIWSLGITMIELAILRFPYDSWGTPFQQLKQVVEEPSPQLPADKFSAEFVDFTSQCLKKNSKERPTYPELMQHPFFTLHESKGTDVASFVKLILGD
# [6] = target: RAC-gamma serine/threonine-protein kinase (Homo sapiens) (UniProt Q9Y243); assay: Residual activity of AKT3 at 1 uM by microplate scintillation counting
# [7] = target: Non-receptor tyrosine-protein kinase TYK2 (Homo sapiens) (UniProt P29597); assay: Residual activity of TYK2 at 10 uM by microplate scintillation counting
# [8] = target: Receptor tyrosine-protein kinase erbB-4 (Homo sapiens) (UniProt Q15303); assay: Residual activity of ERBB4 at 0.1 uM by microplate scintillation counting
# [9] = target: Serine/threonine-protein kinase MRCK beta (Homo sapiens) (UniProt Q9Y5S2); assay: Residual activity of CDC42BPB at 0.1 uM by microplate scintillation counting
# [10] = target: Wee1-like protein kinase (Homo sapiens) (UniProt P30291); assay: Residual activity of WEE1 at 0.1 uM by microplate scintillation counting
# [11] = target: Serine/threonine-protein kinase PAK 5 (Homo sapiens) (UniProt Q9P286); assay: Residual activity of PAK7 at 10 uM by microplate scintillation counting
# [12] = target: Calcium/calmodulin-dependent protein kinase type II subunit alpha (Homo sapiens) (UniProt Q9UQM7); assay: Residual activity of CAMK2A at 0.1 uM by microplate scintillation counting
# [13] = target: Tyrosine-protein kinase SYK (Homo sapiens) (UniProt P43405); assay: Residual activity of SYK at 0.1 uM by microplate scintillation counting
# [14] = target: Platelet-derived growth factor receptor beta (Homo sapiens, UniProt P09619); assay: Residual activity of PDGFRbeta at 1 uM by microplate scintillation counting
# [15] = target: Cyclin-dependent kinase 5/CDK5 activator 1 (Homo sapiens) (UniProt Q00535+Q15078); assay: Residual activity of CDK5/p25NCK at 10 uM by microplate scintillation counting; type: protein-complex assay
# [16] = target: T2, Tyrosine-protein kinase Tec (Homo sapiens) (UniProt P42680); assay: Residual activity of TEC at 10 uM by microplate scintillation counting
# T2 sequence (whole entry): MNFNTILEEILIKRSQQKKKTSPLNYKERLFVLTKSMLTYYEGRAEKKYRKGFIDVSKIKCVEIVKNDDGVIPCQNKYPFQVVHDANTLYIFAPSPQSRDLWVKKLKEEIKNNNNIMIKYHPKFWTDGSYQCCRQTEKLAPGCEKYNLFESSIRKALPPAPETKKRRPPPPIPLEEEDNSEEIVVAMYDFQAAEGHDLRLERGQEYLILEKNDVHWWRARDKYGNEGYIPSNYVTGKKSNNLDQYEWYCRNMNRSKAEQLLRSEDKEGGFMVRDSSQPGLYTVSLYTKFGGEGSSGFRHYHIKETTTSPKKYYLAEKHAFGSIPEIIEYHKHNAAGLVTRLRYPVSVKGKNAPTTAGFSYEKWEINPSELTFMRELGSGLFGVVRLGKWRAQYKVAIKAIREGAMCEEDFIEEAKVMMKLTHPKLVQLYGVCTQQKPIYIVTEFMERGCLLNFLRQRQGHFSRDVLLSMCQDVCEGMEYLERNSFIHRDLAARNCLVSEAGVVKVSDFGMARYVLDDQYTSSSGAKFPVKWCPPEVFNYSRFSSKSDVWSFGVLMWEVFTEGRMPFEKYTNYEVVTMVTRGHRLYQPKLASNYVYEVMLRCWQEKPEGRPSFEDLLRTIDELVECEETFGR
# [17] = target: Casein kinase I isoform gamma-3 (Homo sapiens) (UniProt Q9Y6M4); assay: Residual activity of CK1gamma3 at 10 uM by microplate scintillation counting
# [18] = target: T3, Testis-specific serine/threonine-protein kinase 1 (Homo sapiens) (UniProt Q9BXA7); assay: Residual activity of TSSK1 at 0.1 uM by microplate scintillation counting
# T3 sequence (whole entry): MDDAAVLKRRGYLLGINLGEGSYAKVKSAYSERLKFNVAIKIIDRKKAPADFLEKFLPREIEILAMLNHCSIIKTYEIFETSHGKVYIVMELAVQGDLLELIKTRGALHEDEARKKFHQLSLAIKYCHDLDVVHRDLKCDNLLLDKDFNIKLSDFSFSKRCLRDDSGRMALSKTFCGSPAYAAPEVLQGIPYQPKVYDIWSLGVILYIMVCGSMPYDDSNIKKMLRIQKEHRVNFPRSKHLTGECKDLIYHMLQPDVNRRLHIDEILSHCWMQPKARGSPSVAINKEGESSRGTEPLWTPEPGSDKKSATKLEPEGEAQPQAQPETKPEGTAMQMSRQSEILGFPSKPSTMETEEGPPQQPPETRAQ
# [19] = target: Interleukin-1 receptor-associated kinase 1 (Homo sapiens) (UniProt P51617); assay: Residual activity of IRAKI at 0.1 uM by microplate scintillation counting
# [20] = target: Vascular endothelial growth factor receptor 1 (Homo sapiens) (UniProt P17948); assay: Residual activity of VEGFR1 at 10 uM by microplate scintillation counting
# [21] = system: T1, Dual specificity mitogen-activated protein kinase kinase 6 (Homo sapiens), P52564 [S207D,T211D]; assay: Residual activity of MKK6 S207D/T211D mutant at 0.1 uM by microplate scintillation counting
# [22] = target: Homeodomain-interacting protein kinase 3 (Homo sapiens) (UniProt Q9H422); assay: Residual activity of HIPK3 at 0.1 uM by microplate scintillation counting
# [23] = target: Serine/threonine-protein kinase PAK 4 (Homo sapiens) (UniProt O96013); assay: Residual activity of PAK4 at 0.1 uM by microplate scintillation counting
# Chain of Platelet-derived growth factor receptor beta (P09619 whole entry): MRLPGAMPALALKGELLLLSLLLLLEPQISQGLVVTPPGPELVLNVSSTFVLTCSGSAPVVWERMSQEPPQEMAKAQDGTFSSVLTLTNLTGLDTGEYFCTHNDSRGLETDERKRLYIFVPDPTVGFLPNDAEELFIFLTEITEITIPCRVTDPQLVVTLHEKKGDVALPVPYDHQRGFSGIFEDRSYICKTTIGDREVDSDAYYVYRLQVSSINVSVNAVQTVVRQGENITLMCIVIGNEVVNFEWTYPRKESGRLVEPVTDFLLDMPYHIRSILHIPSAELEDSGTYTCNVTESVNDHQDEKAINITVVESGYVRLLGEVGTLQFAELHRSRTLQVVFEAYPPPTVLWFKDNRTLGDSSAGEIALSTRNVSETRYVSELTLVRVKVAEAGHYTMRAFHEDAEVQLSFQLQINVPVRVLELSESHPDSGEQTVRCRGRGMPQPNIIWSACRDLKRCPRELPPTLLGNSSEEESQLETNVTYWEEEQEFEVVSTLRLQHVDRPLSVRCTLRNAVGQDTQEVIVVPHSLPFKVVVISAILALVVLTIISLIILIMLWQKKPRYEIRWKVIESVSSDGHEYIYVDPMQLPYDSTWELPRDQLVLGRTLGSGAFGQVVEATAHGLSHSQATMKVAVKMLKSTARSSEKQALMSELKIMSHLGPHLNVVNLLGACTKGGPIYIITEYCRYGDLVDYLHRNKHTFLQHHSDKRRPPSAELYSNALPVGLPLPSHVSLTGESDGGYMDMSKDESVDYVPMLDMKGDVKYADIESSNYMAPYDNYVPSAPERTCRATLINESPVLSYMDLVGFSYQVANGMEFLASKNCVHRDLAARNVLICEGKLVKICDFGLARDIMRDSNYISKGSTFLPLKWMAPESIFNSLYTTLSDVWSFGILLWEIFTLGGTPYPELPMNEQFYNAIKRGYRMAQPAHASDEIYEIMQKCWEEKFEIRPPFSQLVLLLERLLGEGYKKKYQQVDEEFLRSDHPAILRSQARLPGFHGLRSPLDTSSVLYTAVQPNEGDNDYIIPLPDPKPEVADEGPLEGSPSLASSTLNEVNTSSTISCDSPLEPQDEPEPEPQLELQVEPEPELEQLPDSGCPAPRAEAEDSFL
# Chain of Serine/threonine-protein kinase MRCK beta (Homo sapiens) (Q9Y5S2 whole entry): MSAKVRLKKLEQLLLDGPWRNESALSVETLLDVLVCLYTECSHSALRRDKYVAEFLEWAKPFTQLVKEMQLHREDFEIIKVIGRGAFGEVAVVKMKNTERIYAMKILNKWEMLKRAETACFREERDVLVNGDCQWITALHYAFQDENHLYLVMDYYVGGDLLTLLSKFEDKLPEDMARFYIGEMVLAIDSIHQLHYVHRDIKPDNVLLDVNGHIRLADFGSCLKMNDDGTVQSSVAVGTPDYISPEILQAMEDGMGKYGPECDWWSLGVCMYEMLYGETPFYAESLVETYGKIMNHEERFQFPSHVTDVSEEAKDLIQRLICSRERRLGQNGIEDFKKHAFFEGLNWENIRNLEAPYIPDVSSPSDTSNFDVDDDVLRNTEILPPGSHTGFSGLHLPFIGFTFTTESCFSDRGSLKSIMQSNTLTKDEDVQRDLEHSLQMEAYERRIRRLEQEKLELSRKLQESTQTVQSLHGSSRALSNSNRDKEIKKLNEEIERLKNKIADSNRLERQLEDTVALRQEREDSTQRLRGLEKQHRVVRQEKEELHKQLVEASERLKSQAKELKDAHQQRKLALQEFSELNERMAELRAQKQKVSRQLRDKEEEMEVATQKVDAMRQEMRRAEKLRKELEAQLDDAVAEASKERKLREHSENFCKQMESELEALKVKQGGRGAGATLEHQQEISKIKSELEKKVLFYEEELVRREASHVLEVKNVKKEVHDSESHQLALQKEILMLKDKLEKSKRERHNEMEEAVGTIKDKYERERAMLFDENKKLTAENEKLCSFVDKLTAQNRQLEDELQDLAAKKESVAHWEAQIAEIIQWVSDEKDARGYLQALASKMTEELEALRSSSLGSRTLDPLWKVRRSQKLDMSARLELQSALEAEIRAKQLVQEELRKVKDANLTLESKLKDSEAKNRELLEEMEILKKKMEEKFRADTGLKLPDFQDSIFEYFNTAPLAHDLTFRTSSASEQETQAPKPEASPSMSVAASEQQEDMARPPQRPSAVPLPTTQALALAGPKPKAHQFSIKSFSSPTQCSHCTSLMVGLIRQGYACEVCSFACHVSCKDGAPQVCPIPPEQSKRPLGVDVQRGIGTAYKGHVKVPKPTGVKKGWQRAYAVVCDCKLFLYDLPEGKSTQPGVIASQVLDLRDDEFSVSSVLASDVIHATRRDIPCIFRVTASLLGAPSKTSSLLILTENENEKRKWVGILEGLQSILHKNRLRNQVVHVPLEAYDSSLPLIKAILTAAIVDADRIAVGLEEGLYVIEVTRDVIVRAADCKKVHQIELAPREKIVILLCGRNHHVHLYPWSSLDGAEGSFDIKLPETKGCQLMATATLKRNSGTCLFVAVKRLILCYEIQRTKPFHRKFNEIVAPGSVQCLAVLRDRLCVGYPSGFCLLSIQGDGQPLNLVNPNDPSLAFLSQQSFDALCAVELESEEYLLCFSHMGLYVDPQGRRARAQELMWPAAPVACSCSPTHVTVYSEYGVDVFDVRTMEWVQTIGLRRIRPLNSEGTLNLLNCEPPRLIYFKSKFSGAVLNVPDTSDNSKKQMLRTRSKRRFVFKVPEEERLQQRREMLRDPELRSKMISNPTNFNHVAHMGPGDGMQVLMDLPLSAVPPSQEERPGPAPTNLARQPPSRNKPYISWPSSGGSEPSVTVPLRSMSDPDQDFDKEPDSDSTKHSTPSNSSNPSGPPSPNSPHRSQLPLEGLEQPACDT
# Chain of Proto-oncogene tyrosine-protein kinase Src (Homo sapiens) (P12931 2-536 limits assumed): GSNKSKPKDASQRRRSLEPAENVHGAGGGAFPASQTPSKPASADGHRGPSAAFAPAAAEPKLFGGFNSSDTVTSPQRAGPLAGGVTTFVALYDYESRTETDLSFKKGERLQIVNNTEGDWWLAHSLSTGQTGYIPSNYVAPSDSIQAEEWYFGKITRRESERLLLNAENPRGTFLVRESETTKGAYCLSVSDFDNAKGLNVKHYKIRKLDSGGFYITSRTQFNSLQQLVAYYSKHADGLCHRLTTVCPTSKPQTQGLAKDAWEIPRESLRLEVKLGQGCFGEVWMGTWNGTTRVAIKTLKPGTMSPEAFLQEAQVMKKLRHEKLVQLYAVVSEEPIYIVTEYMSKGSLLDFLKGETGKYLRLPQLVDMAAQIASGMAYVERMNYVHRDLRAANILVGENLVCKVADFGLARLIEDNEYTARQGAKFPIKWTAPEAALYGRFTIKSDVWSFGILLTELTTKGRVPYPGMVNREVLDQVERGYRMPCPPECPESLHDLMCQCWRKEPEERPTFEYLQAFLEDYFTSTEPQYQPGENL
# Chain of RAC-gamma serine/threonine-protein kinase (Homo sapiens) (Q9Y243 whole entry): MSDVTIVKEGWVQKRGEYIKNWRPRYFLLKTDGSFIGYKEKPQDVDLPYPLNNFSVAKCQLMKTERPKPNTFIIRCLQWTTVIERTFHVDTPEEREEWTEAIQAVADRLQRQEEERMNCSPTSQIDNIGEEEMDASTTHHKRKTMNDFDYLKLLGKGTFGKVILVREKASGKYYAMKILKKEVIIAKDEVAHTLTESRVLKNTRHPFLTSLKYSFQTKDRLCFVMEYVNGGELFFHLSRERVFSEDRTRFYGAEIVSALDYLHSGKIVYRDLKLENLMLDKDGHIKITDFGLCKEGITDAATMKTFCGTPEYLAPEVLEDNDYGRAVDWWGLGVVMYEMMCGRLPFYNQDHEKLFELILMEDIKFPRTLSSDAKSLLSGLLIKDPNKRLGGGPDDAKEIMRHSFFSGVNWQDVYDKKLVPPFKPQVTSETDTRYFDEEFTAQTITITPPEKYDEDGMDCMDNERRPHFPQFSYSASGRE
# Chain of Homeodomain-interacting protein kinase 3 (Homo sapiens) (Q9H422 whole entry, looked up): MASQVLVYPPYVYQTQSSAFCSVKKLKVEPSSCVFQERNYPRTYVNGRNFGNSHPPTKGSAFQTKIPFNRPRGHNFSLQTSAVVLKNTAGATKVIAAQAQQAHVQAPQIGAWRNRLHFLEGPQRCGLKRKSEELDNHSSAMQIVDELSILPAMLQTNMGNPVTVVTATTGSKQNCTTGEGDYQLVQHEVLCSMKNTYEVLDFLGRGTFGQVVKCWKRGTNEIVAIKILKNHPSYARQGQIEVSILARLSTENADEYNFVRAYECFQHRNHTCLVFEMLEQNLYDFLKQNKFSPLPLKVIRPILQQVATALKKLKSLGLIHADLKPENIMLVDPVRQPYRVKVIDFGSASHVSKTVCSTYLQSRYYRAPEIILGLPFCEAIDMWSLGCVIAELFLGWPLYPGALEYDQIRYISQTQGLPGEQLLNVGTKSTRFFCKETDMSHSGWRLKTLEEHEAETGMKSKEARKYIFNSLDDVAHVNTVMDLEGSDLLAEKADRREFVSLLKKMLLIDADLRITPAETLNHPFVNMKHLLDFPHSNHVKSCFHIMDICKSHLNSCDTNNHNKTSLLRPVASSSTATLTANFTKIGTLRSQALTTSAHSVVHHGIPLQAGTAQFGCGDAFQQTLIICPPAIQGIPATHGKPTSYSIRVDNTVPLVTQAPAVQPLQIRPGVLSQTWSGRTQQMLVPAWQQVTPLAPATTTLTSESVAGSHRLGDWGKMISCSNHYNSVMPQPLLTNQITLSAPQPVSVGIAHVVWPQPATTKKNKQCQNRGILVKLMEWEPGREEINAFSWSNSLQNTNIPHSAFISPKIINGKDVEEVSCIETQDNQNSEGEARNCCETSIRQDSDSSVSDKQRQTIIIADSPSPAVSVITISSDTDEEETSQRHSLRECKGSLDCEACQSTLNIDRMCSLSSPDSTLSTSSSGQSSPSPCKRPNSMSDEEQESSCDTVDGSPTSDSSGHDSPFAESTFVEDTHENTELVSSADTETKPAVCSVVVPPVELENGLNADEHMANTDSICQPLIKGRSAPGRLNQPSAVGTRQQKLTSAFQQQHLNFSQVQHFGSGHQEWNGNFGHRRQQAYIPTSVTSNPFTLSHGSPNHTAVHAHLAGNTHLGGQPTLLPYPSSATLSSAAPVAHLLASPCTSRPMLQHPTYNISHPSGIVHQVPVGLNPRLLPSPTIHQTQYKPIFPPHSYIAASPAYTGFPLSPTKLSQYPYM
structure (smiles),measurement,setting,value
COc1cc2c(Oc3ccc(-c4nc5ccccc5s4)cc3)ncnc2cc1OCCCN1CCN(C)CC1,residual activity,[1],67%
same,residual activity,[2],99%
same,residual activity,[3],145%
same,residual activity,[4],87%
same,residual activity,[5],185%
same,residual activity,[6],88%
same,residual activity,[7],72%
same,residual activity,[8],87%
same,residual activity,[9],120%
same,residual activity,[10],118%
same,residual activity,[11],45%
same,residual activity,[12],80%
same,residual activity,[13],96%
same,residual activity,[14],78%
same,residual activity,[15],112%
same,residual activity,[16],61%
same,residual activity,[17],107%
same,residual activity,[18],58%
same,residual activity,[19],77%
same,residual activity,[20],35%
same,residual activity,[21],80%
same,residual activity,[22],88%
same,residual activity,[23],102%
COc1cc2c(Oc3ccc(-c4nc5ccccc5s4)cc3)ncnc2cc1OCCCN1CCCC1,residual activity,[1],66%
same,residual activity,[2],91%
same,residual activity,[3],143%
same,residual activity,[4],95%
same,residual activity,[5],148%
same,residual activity,[6],98%
same,residual activity,[7],72%
same,residual activity,[8],102%
same,residual activity,[9],87%
same,residual activity,[10],100%
same,residual activity,[11],84%
same,residual activity,[12],85%
same,residual activity,[13],103%
same,residual activity,[14],78%
same,residual activity,[15],117%
same,residual activity,[16],45%
same,residual activity,[17],101%
same,residual activity,[18],49%
same,residual activity,[19],61%
same,residual activity,[20],28%
same,residual activity,[21],72%
same,residual activity,[22],92%
same,residual activity,[23],96%
COc1cc2c(Oc3ccc(-c4nc5ccccc5s4)cc3F)ncnc2cc1OCCCN1CCN(C)CC1,residual activity,[1],61%
same,residual activity,[2],107%
same,residual activity,[3],148%
same,residual activity,[4],89%
same,residual activity,[5],164%
same,residual activity,[6],89%
same,residual activity,[7],55%
same,residual activity,[8],100%
same,residual activity,[9],83%
same,residual activity,[10],98%
same,residual activity,[11],49%
same,residual activity,[12],91%
same,residual activity,[13],97%
same,residual activity,[14],88%
same,residual activity,[15],116%
same,residual activity,[16],25%
same,residual activity,[17],105%
same,residual activity,[18],65%
same,residual activity,[19],84%
same,residual activity,[20],14%
same,residual activity,[21],95%
same,residual activity,[22],93%
same,residual activity,[23],99%
